Test results: patent US20070010532A1, “3-Pyridylcarboxamide derivatives as pesticidal agents” (BAYER CROPSCIENCE GMBH, priority 2003, published 2007)

How the values were obtained:
[1] = tested on: black bean aphids (Aphis fabae); assay: Method B: root-systemic action, preparation pipetted into the bottle of field bean (Vicia faba) populated with aphids; assay type: in vivo; details: read-out: mortality among the aphids, by root-systemic action
Description: Germinated field bean seeds (Vicia faba) with seed roots were transferred into brown glass bottles filled with tap water and then populated with about 100 black bean aphids (Aphis fabae). Plants and aphids were then dipped into an aqueous solution of the formulated preparation to be examined for 5 seconds. After they had drained, plants and animals were stored in a climatized chamber (16 hours of light/day, 25° C., 40-60% relative atmospheric humidity). After 3 and 6 days of storage, the effect of the preparation on the aphids was determined. […] Method B:
Germinated field bean seeds (Vicia faba) with seed roots were transferred into brown glass bottles filled with tap water. Four milliliters of an aqueous solution of the formulated preparation to be examined were pipetted into the brown glass bottle. The field bean was then heavily populated with about 100 black bean aphids (Aphis fabae). Plants and aphids were then stored in a climatized chamber (16 hours of light/day, 25° C., 40-60% relative atmospheric humidity). After 3 and 6 days of storage, the root-systemic effect of the preparation on the aphids was determined.

[2] = tested on: black bean aphids (Aphis fabae); assay: Method A: field bean plants (Vicia faba) and aphids dipped into aqueous solution of the formulated preparation; assay type: in vivo; details: read-out: mortality among the aphids
Description: Germinated field bean seeds (Vicia faba) with seed roots were transferred into brown glass bottles filled with tap water and then populated with about 100 black bean aphids (Aphis fabae). Plants and aphids were then dipped into an aqueous solution of the formulated preparation to be examined for 5 seconds. After they had drained, plants and animals were stored in a climatized chamber (16 hours of light/day, 25° C., 40-60% relative atmospheric humidity). After 3 and 6 days of storage, the effect of the preparation on the aphids was determined. […]

Structure (SMILES) | mortality at 30 ppm [1] [%] | mortality at 300 ppm [2] [%]
CC1(C)N/C(=N/C(=O)c2cnccc2C(F)(F)F)N(Cc2ccc(Cl)cc2)C1=O [Compound B-529, N-[(2Z)-1-(4-chlorobenzyl)-4,4-dimethyl-5-oxo-2-imidazolidinylidene]-4-(trifluoromethyl)nicotinamide] | 90 to 100 | 90 to 100
CCC1(C)N/C(=N/C(=O)c2cnccc2C(F)(F)F)NC1=O (stereo not drawn) [Compound B-91, N-[(2Z)-4-ethyl-4-methyl-5-oxo-2-imidazolidinylidene]-4-(trifluoromethyl)nicotinamide] | 90 to 100 | 90 to 100
CSC1=N/C(=N\C(=O)c2cnccc2C(F)(F)F)N(C(C)=O)C1(C)C [Compound E-135, N-[(2Z)-1-acetyl-5,5-dimethyl-4-methylthio-1,5-dihydro-2H-imidazol-2-ylidene]-4-(trifluoromethyl)nicotinamide] | 90 to 100 | 90 to 100
